Test results as given in patent US11247987B2, “Inhibiting ubiquitin specific peptidase 30” (FORMA Therapeutics, Inc., priority 2017, dated 2022).
pIC50: −log10 of the molar value.

biological target: T1, human recombinant USP30 (Homo sapiens, UniProt Q70CQ3); experiment: Ubiquitin-Rhodamine 110 Assay for USP30 Activity (USP30 Inhibitor Biochemical Assay); details: 0.2 nM USP30, 25 nM Ub-Rh110, 30 min preincubation, 30 min at room temperature; read-out: USP30 potency range (USP30 biochemical IC50 assay, IC50 ranges)
T1 construct: purchased Boston Biochem E-582
T1 sequence (Q70CQ3 1-517): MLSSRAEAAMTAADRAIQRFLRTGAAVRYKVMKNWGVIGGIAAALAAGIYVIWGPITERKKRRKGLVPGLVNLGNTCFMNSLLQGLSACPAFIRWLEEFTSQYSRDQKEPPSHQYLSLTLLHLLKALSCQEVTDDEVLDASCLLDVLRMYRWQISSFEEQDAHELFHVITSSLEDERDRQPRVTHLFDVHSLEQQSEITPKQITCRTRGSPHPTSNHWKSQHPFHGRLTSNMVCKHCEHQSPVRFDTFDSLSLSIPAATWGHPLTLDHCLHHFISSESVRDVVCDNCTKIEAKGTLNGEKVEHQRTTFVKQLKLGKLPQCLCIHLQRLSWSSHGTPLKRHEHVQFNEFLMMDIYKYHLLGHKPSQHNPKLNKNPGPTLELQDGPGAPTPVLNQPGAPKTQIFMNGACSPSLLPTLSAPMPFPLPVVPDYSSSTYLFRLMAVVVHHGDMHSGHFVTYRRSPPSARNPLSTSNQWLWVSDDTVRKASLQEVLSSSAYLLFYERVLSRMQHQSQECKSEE
Summary of the method: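 Human recombinant USP30 (0.2 nM final) was preincubated 30 min with compound (25 μM to 1.3 nM, 10-point) in Tris pH 8.0, 1 mM GSH, BGG and Triton X-100. Ub-Rh110 was then added for 30 min at room temperature and stopped with citric acid. Fluorescence at 485/535 nm gave % inhibition and a 4-parameter IC50 fit.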

`N#CN[C@H]1C[C@H](C(=O)Nc2ncc([C@@H]3CCCC[C@@H]3C(F)(F)F)s2)C1` [Compound 1-33, (1r,3r)-3-(cyanoamino)-N-{5-[(1R,2S)-2-(trifluoromethyl)cyclo-hexyl]-1,3-thiazol-2-yl}cyclobutane-1-carboxamide] and `N#CN[C@H]1C[C@H](C(=O)Nc2ncc([C@H]3CCCC[C@H]3C(F)(F)F)s2)C1` [Compound 1-32, (1r,3r)-3-(cyanoamino)-N-{5-[(1S,2R)-2-(trifluoromethyl)cyclo-hexyl]-1,3-thiazol-2-yl}cyclobutane-1-carboxamide] fall in the same range of pIC50: 6.00 to 7.00 for the first, 6.00 to 7.00 for the second.

`N#CN[C@H]1C[C@](F)(C(=O)Nc2cc(-c3ccc(C(F)(F)F)cc3)n[nH]2)C1` [Compound 1-56, (1s,3s)-3-(cyanoamino)-1-fluoro-N-{3-[4-(trifluoro-methyl)phenyl]-1H-pyrazol-5-yl}cyclobutane-1-carboxamide] and `N#CN[C@H]1C[C@@](F)(C(=O)Nc2cc(-c3ccc(C(F)(F)F)cc3)n[nH]2)C1` [Compound 1-57, (1r,3r)-3-(cyanoamino)-1-fluoro-N-{3-[4-(trifluoro-methyl)phenyl]-1H-pyrazol-5-yl}cyclobutane-1-carboxamide] fall in the same range of pIC50: 6.00 to 7.00 for the first, 6.00 to 7.00 for the second.

`CC(C)Oc1ccccc1-c1ncc(NC(=O)[C@H]2C[C@H](NC#N)C2)s1` [Compound 1-8, (1r,3r)-3-(cyanoamino)-N-{2-[2-(propan-2-yloxy)phenyl]-1,3-thiazol-5-yl}cyclobutane-1-carboxamide] and `N#CN[C@H]1C[C@H](C(=O)Nc2cccc(-c3ccccc3)c2)C1` [Compound 1-69, (1r,3r)-3-(cyanoamino)-N-(3-phenylphenyl)cyclo-butane-1-carboxamide] fall in the same range of pIC50: 6.00 to 7.00 for the first, 6.00 to 7.00 for the second.

`CC(C)(C)c1sc(NC(=O)[C@]2(Cl)C[C@@H](NC#N)C2)nc1Cl` (single isomer, unassigned) [Compound 9-1, (1s,3s)-N-(5-tert-butyl-4-chloro-1,3-thiazol-2-yl)-1-chloro-3-(cyanoamino)cyclobutane-1-carboxamide] and `CC(C)(C)c1sc(NC(=O)[C@]2(F)C[C@H](NC#N)C2)nc1Cl` [Compound 1-60, (1r,3r)-N-(5-tert-butyl-4-chloro-1,3-thiazol-2-yl)-3-(cyanoamino)-1-fluorocyclobutane-1-carboxamide] cannot be ordered by pIC50: greater than 7.00 for the first, greater than 7.00 for the second.

`N#CN[C@H]1C[C@H](C(=O)Nc2sc(C3CCCCC3)nc2F)C1` [Compound 1-17, (1r,3r)-3-(cyanoamino)-N-(2-cyclohexyl-4-fluoro-1,3-thiazol-5-yl)cyclobutane-1-carboxamide] and `N#CN[C@H]1C[C@@H](C(=O)Nc2nc(Cl)c(C3CCCCC3)s2)C1` [Compound 1-18, (1s,3s)-N-(4-chloro-5-cyclohexyl-1,3-thiazol-2-yl)-3-(cyanoamino)cyclo-butane-1-carboxamide] fall in the same range of pIC50: 6.00 to 7.00 for the first, 6.00 to 7.00 for the second.

Compared with `C[C@]1(C(=O)Nc2nc(Cl)c(C3CCCCC3)s2)C[C@H](NC#N)C1` [Compound 1-44, (1r,3s)-N-(4-chloro-5-cyclohexyl-1,3-thiazol-2-yl)-3-(cyanoamino)-1-methylcyclobutane-1-carboxamide], `N#CN[C@H]1C[C@](F)(C(=O)Nc2nc(Cl)c(C3CCCCC3)s2)C1` [Compound 1-47, (1s,3s)-N-(4-chloro-5-cyclohexyl-1,3-thiazol-2-yl)-3-(cyanoamino)-1-fluorocyclobutane-1-carboxamide] is lower in pIC50: greater than 7.00 for the first, 6.00 to 7.00 for the second.

First: N#CN[C@H]1C[C@H](NC(=O)c2ncc(-c3ccccc3)s2)C1 [Compound 3-1, 5-phenyl-N-[(trans)-3-(cyanoamino)cyclobutyl]-1,3-thiazole-2-carboxamide]
Second: N#CNC1CC2(CCN2C(=O)c2cnc(-c3ccccc3)s2)C1 (stereo not drawn) [Compound 3-2, {[1-(2-phenyl-1,3-thiazole-5-carbonyl)-l-azaspiro[3.3]heptan-6-yl]amino} carbonitrile]
The pIC50 of the first is lower: 5.00 to 6.00 for the first, 6.00 to 7.00 for the second. The second is the more potent here.

Compared with `N#CN[C@H]1C[C@@](F)(C(=O)Nc2nc3cccc(OC4CCC4)c3s2)C1` [Compound 1-65, (1r,3r)-3-(cyanoamino)-N-(7-cyclobutoxy-1,3-benzothiazol-2-yl)-1-fluorocyclobutane-1-carboxamide], `CCC1(C(=O)Nc2cnc(C3CCCCC3)s2)CC(NC#N)C1` (stereo not shown) [Compound 1-46, (1r,3s)-3-(cyanoamino)-N-(2-cyclohexyl-1,3-thiazol-5-yl)-1-ethylcyclobutane-1-carboxamide] is lower in pIC50: greater than 7.00 for the first, 6.00 to 7.00 for the second.

First: N#CN[C@H]1C[C@@H](C(=O)N2CCN(c3ccccc3)CC2)C1 [Compound 5-11, {[cis-3-(4-phenylpiperazine-1-carbonyl)cyclobutyl]amino} carbonitrile]
Second: N#CN[C@H]1C[C@@H](C(=O)Nc2ccc3c(c2)CCC3)C1 [Compound 5-9, cis-3-(cyanoamino)-N-(2,3-dihydro-1H-inden-5-yl)cyclobutane-1-carboxamide]
The pIC50 of the first is lower: 4.60 to 5.00 for the first, 5.00 to 6.00 for the second. The second is the more potent here.

`N#CN[C@H]1C[C@@H](C(=O)Nc2ncc(C3CCCCC3)s2)C1` [Compound 5-3, cis-3-(cyanoamino)-N-(5-cyclohexyl-1,3-thiazol-2-yl)cyclobutane-1-carboxamide] and `N#CN[C@H]1C[C@H](C(=O)Nc2ncc([C@@H]3CCCCO3)s2)C1` [Compound 1-28, (1r,3r)-3-(cyanoamino)-N-{5-[(2S)-oxan-2-yl]-1,3-thiazol-2-yl}cyclobutane-1-carboxamide] fall in the same range of pIC50: 5.00 to 6.00 for the first, 5.00 to 6.00 for the second.

First: CC1(C)[C@@H]2CC[C@@H](CNC(=O)[C@H]3C[C@H](NC#N)C3)[C@H]1C2 [Compound 1-67, (1r,3r)-3-(cyanoamino)-N-{[(1R,2R,5R)-6,6-dimethylbicyclo[3.1.1]heptan-2-yl]methyl}cyclo-butane-1-carboxamide]
Second: Cc1nc(NC(=O)[C@H]2C[C@H](NC#N)C2)sc1C1CCCCC1 [Compound 1-29, (1r,3r)-3-(cyanoamino)-N-(5-cyclohexyl-4-methyl-1,3-thiazol-2-yl)cyclobutane-1-carboxamide]
The pIC50 of the first is lower: 6.00 to 7.00 for the first, greater than 7.00 for the second.

`N#CN[C@H]1C[C@H](C(=O)Nc2nc(-c3cnn(C4CC4)c3)c(C3CCCCC3)s2)C1` [Compound 1-26, (1r,3r)-3-(cyanoamino)-N-[5-cyclohexyl-4-(1-cyclopropyl-1H-pyrazol-4-yl)-1,3-thiazol-2-yl]cyclobutane-1-carboxamide] and `COCc1nc(NC(=O)[C@H]2C[C@H](NC#N)C2)sc1C1CCCCC1` [Compound 1-16, (1r,3r)-3-(cyanoamino)-N-[5-cyclohexyl-4-(methoxymethyl)-1,3-thiazol-2-yl]cyclobutane-1-carboxamide] cannot be ordered by pIC50: greater than 7.00 for the first, greater than 7.00 for the second.

First: N#CN[C@H]1CC[C@H](C(=O)Nc2ccc3c(c2)CCC3)C1 [Compound 12-5, (1S,3S)-3-(cyanoamino)-N-(2,3-dihydro-1H-inden-5-yl)cyclopentane-1-carboxamide]
Second: N#CN[C@H]1C[C@H](C(=O)Nc2ccc(Cl)c(C(F)(F)F)c2)C1 [Compound 1-20, (1r,3r)-N-[4-chloro-3-(trifluoromethyl)phenyl]-3-(cyano-amino)cyclobutane-1-carboxamide]
The pIC50 of the first is lower: 4.60 to 5.00 for the first, 5.00 to 6.00 for the second.

First: CN(c1cc(-c2cccc(Cl)c2)on1)C(=O)[C@H]1C[C@H](NC#N)C1 [Compound 1-52, (1r,3r)-N-[5-(3-chlorophenyl)-1,2-oxazol-3-yl]-3-(cyanoamino)-N-methylcyclobutane-1-carboxamide]
Second: CN(c1nc(Cl)c(C(C)(C)C)s1)C(=O)[C@H]1C[C@H](NC#N)C1 [Compound 1-50, (1r,3r)-N-(5-tert-butyl-4-chloro-1,3-thiazol-2-yl)-3-(cyanoamino)-N-methylcyclobutane-1-carboxamide]
The pIC50 of the first is lower: 6.00 to 7.00 for the first, greater than 7.00 for the second. The second is the more potent here.

Compared with `N#CN[C@@H]1CC[C@@H](C(=O)Nc2ncc(C3CCOCC3)s2)C1` [Compound 10-11, (1R,3R)-3-(cyanoamino)-N-[5-(oxan-4-yl)-1,3-thiazol-2-yl]cyclopentane-1-carboxamide], `CN(c1cnc(C2CCCCC2)s1)C(=O)[C@H]1C[C@H](NC#N)C1` [Compound 1-4, (1r,3r)-3-(cyanoamino)-N-(2-cyclohexyl-1,3-thiazol-5-yl)-N-methylcyclobutane-1-carboxamide] is higher in pIC50: 4.60 to 5.00 for the first, 6.00 to 7.00 for the second. The second is the more potent here.

First: N#CN[C@H]1C[C@]2(CCN(c3nc(Cl)c(C4CCCCC4)s3)C2=O)C1 [Compound 7-3, {[(2r,4s)-6-(4-chloro-5-cyclohexyl-1,3-thiazol-2-yl)-5-oxo-6-azaspiro[3.4]octan-2-yl]amino}carbonitrilc]
Second: N#CN[C@H]1CCN(C(=O)c2csc(-c3cccc(Cl)c3Cl)n2)C1 [Compound 12-8, {[(3S)-1-[2-(2,3-dichlorophenyl)-1,3-thiazole-4-carbonyl]pyrolidin-3-yl]amino}carbonitrile]
The pIC50 of the first is higher: greater than 7.00 for the first, 5.00 to 6.00 for the second. The first is the more potent here.

First: CN(c1ncc(C(C)(C)C)s1)C(=O)[C@H]1C[C@H](NC#N)C1 [Compound 1-5, (1r,3r)-N-(5-tert-butyl-1,3-thiazol-2-yl)-3-(cyanoamino)-N-methylcyclo-butane-1-carboxamide]
Second: CC(C)c1ccc(CNC(=O)[C@H]2C[C@H](NC#N)C2)cc1 [Compound 1-70, (1r,3r)-3-(cyanoamino)-N-{[4-(propan-2-yl)phenyl]methyl} cyclobutane-1-carboxamide]
The pIC50 of the first is lower: 6.00 to 7.00 for the first, greater than 7.00 for the second. The second is the more potent here.
